In patent publication US20100130738A1 (priority 2007, published 2010) one finds IC50 and inhibition in vivo data, which are given here for 19 molecules.

Experiment [1] addresses T1, PDE3A catalytic domain (PDE3Acat) (Homo sapiens, UniProt Q14432).
T1 construct: isolate the cDNA of a PDE3A catalytic domain; made in house; host or cells: Sf9 insect cells (baculovirus, Bac-to-Bac / Gateway)
Kind of experiment: Phosphodiesterase inhibitory activity, recombinant PDE3Acat, [3H]cAMP. The settings on record: 30° C. 20 minutes, read-out: IC50 (μmol/L) PDE3. It counts as biochemical.

Experiment [2] concerns histamine-induced bronchoconstriction in guinea pigs. Nature of the experiment: Histamine-induced bronchoconstriction reaction in guinea pigs. It counts as in vivo, guinea pig. Conditions: Cavia porcellus, iv, 0.5 min, compound 0.3 mg/kg i.v., measured 30 seconds after administration, histamine 12.5 μg/kg i.v., read-out: Inhibition rate (histamine-induced bronchoconstriction). The method, then:
Guinea pigs were anesthetized with pentobarbital (30 mg/kg, i.p.). A cannula for intravenous administration, a cannula for collecting blood and measuring blood pressure, and a tracheal cannula were inserted into the left external jugular vein, right internal carotid artery, and trachea, respectively. The guinea pigs were maintained on artificial respiration under conditions of 60 times/min and 10 mL/kg/stroke. The overflowing air from the side branch of the tracheal cannula was measured by a bronchospasm transducer (Ugo-Basile) and recorded on a computer via Power Lab (ADInstruments Japan). The guinea pigs were immobilized with gallamine (10 mg/kg, i.v.), and histamine (12.5 μg/kg, i.v.) was administered at 10-minute intervals. After the histamine-induced bronchoconstriction became stable, the compound (0.3 mg/kg, i.v.) was administered. The histamine-induced bronchoconstriction reaction was measured 30 seconds after the compound administration to examine the bronchoconstriction inhibitory activity of the compound. The bronchoconstriction was recorded as the airflow value, and the results were represented by the ratio of the maximum value of the histamine-induced airflow 30 seconds after administration to the maximum value of the airflow before administration. Also, the test compounds dissolved in DMSO were used. Further, the indications were as follows: inhibition rate≧90% (+++), 90%>inhibition rate≧80% (++), and 80%>inhibition rate≧60% (+).

The target of another experiment is T2, PDE4Bcat (Homo sapiens, UniProt Q07343).
T2 construct: made in house; host or cells: Sf9 insect cells (baculovirus, Bac-to-Bac / Gateway)
T2 sequence (Q07343 330-659 limits assumed): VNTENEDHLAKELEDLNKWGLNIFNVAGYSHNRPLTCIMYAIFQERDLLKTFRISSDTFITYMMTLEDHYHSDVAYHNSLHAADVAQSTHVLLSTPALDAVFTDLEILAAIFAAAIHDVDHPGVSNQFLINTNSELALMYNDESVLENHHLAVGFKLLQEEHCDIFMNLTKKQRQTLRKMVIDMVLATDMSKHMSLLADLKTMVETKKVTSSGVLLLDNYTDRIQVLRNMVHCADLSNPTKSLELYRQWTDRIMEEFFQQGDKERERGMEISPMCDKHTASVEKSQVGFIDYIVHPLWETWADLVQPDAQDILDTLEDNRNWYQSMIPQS
Kind of experiment: Phosphodiesterase inhibitory activity, recombinant PDE4Bcat, [3H]cAMP. It counts as biochemical. Conditions: 30° C. 20 minutes, read-out: IC50 (μmol/L) PDE4.

T1 sequence (Q14432 674-1093 limits assumed): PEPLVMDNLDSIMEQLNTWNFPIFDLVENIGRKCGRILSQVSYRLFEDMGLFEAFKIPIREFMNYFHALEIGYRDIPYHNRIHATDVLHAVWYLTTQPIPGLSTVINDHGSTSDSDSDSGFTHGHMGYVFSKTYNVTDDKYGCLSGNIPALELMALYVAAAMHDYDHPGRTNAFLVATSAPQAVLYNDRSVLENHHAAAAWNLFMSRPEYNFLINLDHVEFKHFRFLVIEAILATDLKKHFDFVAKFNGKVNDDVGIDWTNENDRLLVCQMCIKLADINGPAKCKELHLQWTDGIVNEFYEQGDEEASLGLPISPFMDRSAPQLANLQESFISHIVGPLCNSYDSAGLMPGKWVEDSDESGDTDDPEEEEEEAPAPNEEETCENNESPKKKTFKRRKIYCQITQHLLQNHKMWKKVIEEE

As for `COc1ccc(C2=NN(CCCCOc3ccc(C4=NNC(=O)CC4C)cc3)C(=O)C2(C)C)c2ccc(C)nc12` (stereo not drawn) [Example 193, 5-(8-Methoxy-2-methylquinolin-5-yl)-2-[4-[4-(4-methyl-6-oxo-1,4,5,6-tetrahydropyridazin-3-yl)phenoxy]butyl]-4,4-dimethyl-4,4-dihydro-pyrazol-3-one], the IC50 (in experiment [1]; at PDE4Bcat) was 0.01 to 0.1 µmol/L throughout. For the same molecule, the inhibition in vivo at 0.3 mg/kg in experiment [2] is no less than 90%.
Consider `CCc1ccc2c(C3=NN(CCCCOc4ccc(C5=NNC(=O)CC5C)cc4)C(=O)C3(C)C)ccc(OC)c2n1` (stereo not drawn) [Example 194, 5-(2-Ethyl-8-methoxyquinolin-5-yl)-2-[4-[4-(4-methyl-6-oxo-1,4,5,6-tetrahydropyridazin-3-yl)phenoxy]butyl]-4,4-dimethyl-2,4-dihydro-pyrazol-3-one], for which the IC50 (in experiment [1]; at PDE4Bcat) was 0.01 to 0.1 µmol/L each time. In experiment [2], the inhibition in vivo at 0.3 mg/kg is no less than 90%.
`COc1ccc(C2=NN(CCCCOc3ccc(C4=NNC(=O)CC4C)cc3)C(=O)C2(C)C)c2ccc(C(C)C)nc12` (stereo not drawn) [Example 195, 5-(8-Methoxy-2-isopropylquinolin-5-yl)-2-[4-[4-(4-methyl-6-oxo-1,4,5,6-tetrahydropyridazin-3-yl)phenoxy]butyl]-4,4-dimethyl-2,4-dihydro-pyrazol-3-one]: the IC50 is less than 0.01 µmol/L in experiment [1] and 0.1 to 1 µmol/L on PDE4Bcat.
For `COc1ccc(C2=NN(CCCCOc3ccc(C4=NNC(=O)CC4C)c(F)c3F)C(=O)C2(C)C)c2ccc(C)nc12` (stereo not drawn) [Example 196, 2-[4-[2,3-Difluoro-4-(4-methyl-6-oxo-1,4,5,6-tetrahydropyridazin-3-yl)phenoxy]butyl]-5-(8-methoxy-2-methylquinolin-5-yl)-4,4-dimethyl-2,4-dihydro-pyrazol-3-one], the IC50 in experiment [1] is less than 0.01 µmol/L; at PDE4Bcat it was 0.01 to 0.1 µmol/L. Also, in experiment [2], the inhibition in vivo at 0.3 mg/kg was no less than 90%.
For the molecule `CCc1ccc2c(C3=NN(CCCCOc4ccc(C5=NNC(=O)CC5)c(F)c4F)C(=O)C3(C)C)ccc(OC)c2n1` [Example 198, 5-(2-Ethyl-8-methoxyquinolin-5-yl)-2-[4-[2,3-difluoro-4-(6-oxo-1,4,5,6-tetrahydropyridazin-3-yl)phenoxy]butyl]-4,4-dimethyl-2,4-dihydro-pyrazol-3-one], the IC50 was less than 0.01 µmol/L in experiment [1] and 0.01 to 0.1 µmol/L at PDE4Bcat. Besides, the inhibition in vivo at 0.3 mg/kg in experiment [2] was no less than 90%.
With `CCc1ccc2c(C3=NN(CCCCOc4ccc(C5=NNC(=O)C5(C)C)cc4)C(=O)C3(C)C)ccc(OC)c2n1` [Example 201, 5-(2-Ethyl-8-methoxyquinolin-5-yl)-2-[4-[4-(4,4-dimethyl-5-oxo-4,5-dihydro-1H-pyrazol-3-yl)phenoxy]butyl]-4,4-dimethyl-2,4-dihydro-pyrazol-3-one], the results for the IC50 (in experiment [1]; on PDE4Bcat) were 0.1 to 1 µmol/L and 0.01 to 0.1 µmol/L, respectively.
Taken in the same sequence, the figures for `CCc1ccc2c(C3=NN(CCCCOc4ccc(C5=NNC(=O)C5(C)C)cc4OC)C(=O)C3(C)C)ccc(OC)c2n1` [Example 204, 5-(2-Ethyl-8-methoxyquinolin-5-yl)-2-[4-[2-methoxy-4-(4,4-dimethyl-5-oxo-4,5-dihydro-1H-pyrazol-3-yl)phenoxy]butyl]-4,4-dimethyl-2,4-dihydro-pyrazol-3-one] were 0.1 to 1 µmol/L and 0.1 to 1 µmol/L.
Consider `CCc1ccc2c(C3=NN(CCCCOc4ccc(C5=NNC(=O)CC5C)cc4OC)C(=O)C3(C)C)ccc(OC)c2n1` (stereo not drawn) [Example 208, 5-(2-Ethyl-8-methoxyquinolin-5-yl)-2-[4-[2-methoxy-4-(4-methyl-6-oxo-1,4,5,6-tetrahydropyridazin-3-yl)phenoxy]butyl]-4,4-dimethyl-2,4-dihydro-pyrazol-3-one], for which the IC50 in experiment [1] lay in the range of 0.01 to 0.1 µmol/L; at PDE4Bcat it was 0.1 to 1 µmol/L.
As to `COc1ccc(C2=NN(CCCCOc3ccc(C4=NNC(=O)CC4)c(F)c3F)C(=O)C2(C)C)c2cc(C(F)(F)F)oc12` [Example 216, 2-[4-[2,3-Difluoro-4-(6-oxo-1,4,5,6-tetrahydropyridazin-3-yl)phenoxy]butyl]-5-(7-methoxy-2-trifluoromethylbenzofuran-4-yl)-4,4-dimethyl-2,4-dihydro-pyrazol-3-one], the IC50 (in experiment [1]; at PDE4Bcat) was less than 0.01 µmol/L in each case.
Take `COc1ccc(C2=NN(CCCCOc3ccc(C4=NNC(=O)C4(C)C)c(F)c3F)C(=O)C2(C)C)c2cc(C(F)(F)F)oc12` [Example 217, 2-[4-[2,3-Difluoro-4-(4,4-dimethyl-5-oxo-4,5-dihydro-1H-pyrazol-3-yl)phenoxy]butyl]-5-(7-methoxy-2-trifluoromethylbenzofuran-4-yl)-4,4-dimethyl-2,4-dihydro-pyrazol-3-one]: the IC50 in experiment [1] is 0.1 to 1 µmol/L; on PDE4Bcat, less than 0.01 µmol/L.
As to `COc1ccc(C2=NN(CCCCOc3ccc(C4=NNC(=O)CC4C)c(F)c3F)C(=O)C2(C)C)c2cc(C(F)(F)F)oc12` (stereo not drawn) [Example 218, 2-[4-[2,3-Difluoro-4-(4-methyl-6-oxo-1,4,5,6-tetrahydropyridazin-3-yl)phenoxy]butyl]-5-(7-methoxy-2-trifluoromethylbenzofuran-4-yl)-4,4-dimethyl-2,4-dihydro-pyrazol-3-one], the IC50 (in experiment [1]; at PDE4Bcat) was less than 0.01 µmol/L each time.
On to `COc1ccc(C2=NN(CCCCOc3ccc(C4=NNC(=O)CC4C)c(F)c3F)C(=O)C2(C)C)c2nc(C(F)(F)F)nn12` (stereo not drawn) [Example 225, 2-[4-[2,3-Difluoro-4-(4-methyl-6-oxo-1,4,5,6-tetrahydropyridazin-3-yl)phenoxy]butyl]-5-(5-methoxy-2-trifluoromethyl-[1,2,4]triazolo[1,5-a]pyridin-8-yl)-4,4-dimethyl-2,4-dihydro-pyrazol-3-one], for which the values for the IC50 (in experiment [1]; on PDE4Bcat) were less than 0.01 µmol/L and 0.01 to 0.1 µmol/L, respectively.
`COc1ccc(C2=NN(CCCCOc3ccc(C4=NNC(=O)CC4)c(F)c3F)C(=O)C2(C)C)c2nc(C(F)(F)F)nn12` [Example 226, 2-[4-[2,3-Difluoro-4-(6-oxo-1,4,5,6-tetrahydropyridazin-3-yl)phenoxy]butyl]-5-(5-methoxy-2-trifluoromethyl-[1,2,4]triazolo[1,5-a]pyridin-8-yl)-4,4-dimethyl-2,4-dihydro-pyrazol-3-one]: the IC50 in experiment [1] is less than 0.01 µmol/L; on PDE4Bcat it was 0.01 to 0.1 µmol/L.
For `COc1ccc(C2=NN(CCCCOc3ccc(C4=NNC(=O)C4(C)C)c(F)c3F)C(=O)C2(C)C)c2nc(C(F)(F)F)nn12` [Example 227, 2-[4-[2,3-Difluoro-4-(4,4-dimethyl-5-oxo-4,5-dihydro-1H-pyrazol-3-yl)phenoxy]butyl]-5-(5-methoxy-2-trifluoromethyl-[1,2,4]triazolo[1,5-a]pyridin-8-yl)-4,4-dimethyl-2,4-dihydro-pyrazol-3-one] the same measures were 0.01 to 0.1 µmol/L and 0.1 to 1 µmol/L.
For `COc1ccc(C2=NN(CCCCOc3ccc(C4=NNC(=O)C4(C)C)c(F)c3F)C(=O)C2(C)C)c2sc(C(F)(F)F)nc12` [Example 230, 2-[4-[2,3-Difluoro-4-(4,4-dimethyl-5-oxo-4,5-dihydro-1H-pyrazol-3-yl)phenoxy]butyl]-5-(4-methoxy-2-trifluoromethylbenzo[d]thiazol-7-yl)-4,4-dimethyl-2,4-dihydro-pyrazol-3-one] the same measures were 0.01 to 0.1 µmol/L and less than 0.01 µmol/L.
On to `CCc1cc2c(C3=NN(CCCCOc4ccc(C5=NNC(=O)CC5C)c(F)c4F)C(=O)C3(C)C)ccc(OC)n2c1` (stereo not drawn) [Example 231, 5-(2-Ethyl-5-methoxyindolidin-8-yl)-2-[4-[2,3-difluoro-4-(4-methyl-6-oxo-1,4,5,6-tetrahydropyridazin-3-yl)phenoxy]butyl]-4,4-dimethyl-2,4-dihydro-pyrazol-3-one], for which the values for the IC50 (in experiment [1]; on PDE4Bcat) were less than 0.01 µmol/L and 0.1 to 1 µmol/L, respectively.
In the case of `CCc1cc2c(C3=NN(CCCCOc4ccc(C5=NNC(=O)CC5)c(F)c4F)C(=O)C3(C)C)ccc(OC)n2c1` [Example 232, 5-(2-Ethyl-5-methoxyindolidin-8-yl)-2-[4-[2,3-difluoro-4-(6-oxo-1,4,5,6-tetrahydropyridazin-3-yl)phenoxy]butyl]-4,4-dimethyl-2,4-dihydro-pyrazol-3-one], the results for the IC50 (in experiment [1]; on PDE4Bcat) were less than 0.01 µmol/L and 0.01 to 0.1 µmol/L, respectively.
Regarding `CCc1cc2c(C3=NN(CCCCOc4ccc(C5=NNC(=O)C5(C)C)c(F)c4F)C(=O)C3(C)C)ccc(OC)n2c1` [Example 233, 5-(2-Ethyl-5-methoxyindolidin-8-yl)-2-[4-[2,3-difluoro-4-(4,4-dimethyl-5-oxo-4,5-dihydro-1H-pyrazol-3-yl)phenoxy]butyl]-4,4-dimethyl-2,4-dihydro-pyrazol-3-one], the results for the IC50 (in experiment [1]; on PDE4Bcat) were 0.01 to 0.1 µmol/L and 0.1 to 1 µmol/L, respectively.
`CCc1ccc2c(C3=NN(CCOc4ccc(C5=NNC(=O)CC5C)c(F)c4F)C(=O)C3(C)C)ccc(OC)c2n1` (stereo not drawn) [Example 242, 5-(2-Ethyl-8-methoxyquinolin-5-yl)-2-[4-[2,3-difluoro-4-(4-methyl-6-oxo-1,4,5,6-tetrahydropyridazin-3-yl)phenoxy]ethyl]-4,4-dimethyl-2,4-dihydro-pyrazol-3-one]: the IC50 is less than 0.01 µmol/L in experiment [1] and 0.01 to 0.1 µmol/L on PDE4Bcat.
